In US9981970B2, “Bicyclic ureas and thiadiazolidine-1, 1-dioxides as CETP inhibitors” (Merck Sharp & Dohme Corp., priority 2013, dated 2018):

The compounds below were run against T1, endogenous CETP from serum (Homo sapiens, UniProt P11597) (assay: RTA assay in 95% human serum (in vitro radioactive assay of CETP-catalyzed CE and TG transfer)). Details: RTA assay in 95% human serum, endogenous CETP; read-out: RTA (95% HS).
T1 construct: yielding a concentration of approximately 15 nM endogenous CETP in the assay; from tissue; host or cells: human serum
T1 sequence (P11597 18-493): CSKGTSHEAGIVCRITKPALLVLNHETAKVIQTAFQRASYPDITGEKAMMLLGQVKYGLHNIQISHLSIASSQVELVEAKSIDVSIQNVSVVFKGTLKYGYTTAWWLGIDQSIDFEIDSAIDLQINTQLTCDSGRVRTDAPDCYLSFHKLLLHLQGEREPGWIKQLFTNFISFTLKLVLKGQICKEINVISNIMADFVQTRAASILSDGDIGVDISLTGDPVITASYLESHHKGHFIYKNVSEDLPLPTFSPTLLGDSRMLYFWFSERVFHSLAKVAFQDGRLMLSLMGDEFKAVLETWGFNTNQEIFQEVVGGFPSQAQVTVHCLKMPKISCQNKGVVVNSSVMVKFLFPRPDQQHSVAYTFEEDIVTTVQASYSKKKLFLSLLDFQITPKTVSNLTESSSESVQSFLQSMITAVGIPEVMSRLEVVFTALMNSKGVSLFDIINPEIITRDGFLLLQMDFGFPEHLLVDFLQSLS
Format: biochemical
Text: In Vitro Radioactive Assays of CETP-Catalyzed CE and TG Transfer (RTA Assay)
Reagents and sources are: [3H] cholesteryl oleate (GE #TRK.886), [3H] Triolein (Perkin-Elmer NET-431), Butylated hydroxyl toluene (Aldrich, #D4740-4), DOPC (Sigma, # P6354), Sodium Bromide (Fisher scientific #S255-500), PEG 8000 (Fisher, #BP233-1), and human HDL (Intracel Corp #RP-036).
Both assays measure the transfer of [3H] cholesteryl oleate or [3H] triolein from exogenous LDL to HDL.
Radiolabeled donor particles are generated by first combining 100 μl of 200 μM butylated hydroxyl toluene in CHCl3, 216 μL of 21.57 mM DOPC in EtOH, and either 500 μCi [3H]-triolein (Perkin Elmer #NET-431) or 500 μCi [3H]-cholesteryl oleate (GE #TRK886) in a glass tube. Reagents are mixed, dried under nitrogen, and then resuspended in 2 mL of 50 mM Tris, 27 μM EDTA at pH 7.4. After a brief vortex, the solution is sonicated until clear and mixed with 20 mL of fresh human serum. The mixture is incubated overnight at 37° C. The [3H] labeled LDL substrate is separated at 1.063 g/ml density by sequential ultracentrifugal flotation in NaBr according to the method of Havel, Eder, et al., 1955, and Chapman, Goldstein, et al., 1981. Once isolated the particles are dialyzed 3× in CETP buffer (50 mM Tris, pH 7.4, 100 mM NaCl, 1 mM EDTA). Human HDL is purchased from Intracel and used as the acceptor particles.
Transfer assays are performed in a 96-well v-bottom polypropylene plate. For the RTA using recombinant CETP (2% RTA), an assay cocktail is prepared with the final concentrations 128 μg/mL HDL, 20 nM rCETP, 2% human serum, and 1×CETP buffer. 1 μL of each test compound diluted in DMSO is added to 47 μL of assay cocktail per well and incubated at 37° C. for 1 hour. To initiate the transfer reaction, 2 μL radiolabeled LDL is added. After an additional 60 min of incubation at 37° C., the transfer action is terminated by precipitation of LDL with an equal volume of 20% WN PEG 8000. The plates are centrifuged at 2000 rpm for 30 minutes at 4° C. A 40 μL aliquot of the HDL-containing supernatant is transferred to a Packard Optiplate™ with 200 μL of MicroScint™ 20. After mixing, plates are counted by liquid scintillation. Counts present in the supernatant for blanks (wells containing only HDL acceptor, CETP buffer and DMSO) are subtracted from those containing test compounds and used to correct for non-specific transfer.
This is then combined with HDL and CETP buffer and the reaction proceeds as above and is terminated as described.
Comparison of the counts of samples with inhibitors to an uninhibited (DMSO only) positive control yield a percent inhibition. A plot of percent inhibition vs. log of inhibitor concentration, fit to a Sigmoidal 4 parameter equation is used to calculate IC50.
Starting materials are commercially available or are made using known procedures or as shown below. The examples may be synthesized according to the general schemes provided below and by using the synthetic intermediates that are described. […] When compounds of Formula I are mentioned herein, such compounds include compounds defined generically by Formula I and also the specific examples disclosed herein.

**Q.** With `COc1ncc(-c2ccc(C(=O)O)cc2C)cc1-c1ccc(C(F)(F)F)cc1[C@@H]1CC[C@H]2[C@@H](c3cc(C(F)(F)F)cc(C(F)(F)F)c3)NC(=O)N12` [Example 1, 4-(5-(2-((1R,5 S,7aS)-1-(3,5-bis(trifluoromethyl)phenyl)-3-oxohexahydro-1H-pyrrolo[1,2-c]imidazol-5-yl)-4-(trifluoromethyl)phenyl)-6-methoxypyridin-3-yl)-3-methylbenzoic acid] as the compound, how does the IC50 read?
**A.** 335 nM

**Q.** `COc1ncc(-c2ccc(C(=O)NC3(C#N)CC3)cc2C)cc1-c1ccc(C(F)(F)F)cc1[C@@H]1CC[C@H]2[C@@H](c3cc(C(F)(F)F)cc(C(F)(F)F)c3)NC(=O)N12` [Example 2, 4-{5-[2-{(1R,5S,7aS)-1-[3,5-bis(trifluoromethyl)phenyl]-3-oxohexahydro-1H-pyrrolo[1,2-c]imidazol-5-yl}-4-(trifluoromethyl)phenyl]-6-methoxypyridin-3-yl}-N-(1-cyanocyclopropyl)-3-methylbenzamide] was tested. Which IC50 did it give?
**A.** 276 nM

**Q.** How did the IC50 turn out when `COc1ccc(C2CCC(C(=O)O)CC2)cc1-c1ccc(C(F)(F)F)cc1[C@@H]1CC[C@H]2[C@@H](c3cc(C(F)(F)F)cc(C(F)(F)F)c3)NC(=O)N12` (stereo partly drawn) [Example 3, 4-(2′-((1R,5 S,7aS)-1-(3,5-bis(trifluoromethyl)phenyl)-3-oxohexahydro-1H-pyrrolo[1,2-c]imidazol-5-yl)-6-methoxy-4′-(trifluoromethyl)-[1,1′-biphenyl]-3-yl)cyclohexanecarboxylic acid] was run?
**A.** 1730 nM

Same assay, conditions: Table 1; data generally obtained using the RTA assay in 95% human serum; read-out: IC50

**Q.** For `COc1ncc(-c2ccc(C(=O)O)cc2C)cc1-c1ccc(C(F)(F)F)cc1[C@@H]1CC[C@H]2[C@@H](c3cc(C(F)(F)F)cc(C(F)(F)F)c3)N(C)C(=O)N12` [Example 4, 4-{5-[2-{(1R,5S,7aS)-1-[3,5-bis(trifluoromethyl)phenyl]-2-methyl-3-oxohexahydro-1H-pyrrolo[1,2-c]imidazol-5-yl}-4-(trifluoromethyl)phenyl]-6-methoxypyridin-3-yl}-3-methylbenzoic acid], which IC50 is on record?
**A.** 1500 nM

**Q.** How did the IC50 turn out when `COc1ncc(-c2c(C)cc(C(=O)O)cc2C)cc1-c1ccc(C(F)(F)F)cc1[C@@H]1CC[C@H]2[C@@H](c3cc(C(F)(F)F)cc(C(F)(F)F)c3)NC(=O)N12` [Example 5, 4-{5-[2-{(1R,5S,7aS)-1-[3,5-bis(trifluoromethyl)phenyl]-3-oxohexahydro-1H-pyrrolo[1,2-c]imidazol-5-yl}-4-(trifluoromethyl)phenyl]-6-methoxypyridin-3-yl}-3,5-dimethylbenzoic acid] was run?
**A.** 392 nM

**Q.** With `COc1cc(F)c(C(C)C)cc1-c1ccc(C(F)(F)F)cc1[C@@H]1CC[C@H]2[C@@H](c3cc(F)cc(C(F)(F)F)c3)NC(=O)N12` [Example 6] as the compound, how does the IC50 read?
**A.** 1070 nM

**Q.** For `COc1ccc(CCC(=O)O)cc1-c1ccc(C(F)(F)F)cc1[C@@H]1CC[C@H]2[C@@H](c3cc(C(F)(F)F)cc(C(F)(F)F)c3)NC(=O)N12` [Example 7, 3-[2′-{(1R,5S,7aS)-1-[3,5-bis(trifluoromethyl)phenyl]-3-oxohexahydro-1H-pyrrolo[1,2-c]imidazol-5-yl}-6-methoxy-4′-(trifluoromethyl)biphenyl-3-yl]propanoic acid], which IC50 is on record?
**A.** 1200 nM

**Q.** For `COc1ccc(-c2ccc(C(=O)O)cc2C)cc1-c1ccc(C(F)(F)F)cc1[C@@H]1CC[C@H]2[C@@H](c3cc(C(F)(F)F)cc(C(F)(F)F)c3)NC(=O)N12` [Example 9], which IC50 is on record?
**A.** 1360 nM

**Q.** Which IC50 does the source give for `COc1ccc(CCC(=O)O)cc1-c1ccc(C(F)(F)F)cc1[C@@H]1CC[C@H]2[C@@H](c3cc(C(F)(F)F)cc(C(F)(F)F)c3)N(C)C(=O)N12` [Example 10, 3-[2′-{(1R,5S,7aS)-1-[3,5-bis(trifluoromethyl)phenyl]-2-methyl-3-oxohexahydro-1H-pyrrolo[1,2-c]imidazol-5-yl}-6-methoxy-4′-(trifluoromethyl)biphenyl-3-yl]propanoic acid] here?
**A.** 2950 nM

**Q.** For `COc1ccc(-c2ccc(C(=O)O)cc2C)cc1-c1ccc(C(F)(F)F)cc1[C@@H]1CC[C@H]2[C@@H](c3cc(C(F)(F)F)cc(C(F)(F)F)c3)N(C)C(=O)N12` [Example 12, 2″-{(1R,5S,7aS)-1-[3,5-bis(trifluoromethyl)phenyl]-2-methyl-3-oxohexahydro-1H-pyrrolo[1,2-c]imidazol-5-yl}-4′-methoxy-2-methyl-4″-(trifluoromethyl)-l,1′:3′,l″-terphenyl-4-carboxylic acid], which IC50 is on record?
**A.** 1420 nM

**Q.** Which IC50 does the source give for `COc1ccc(-c2cccnc2C)cc1-c1ccc(C(F)(F)F)cc1[C@@H]1CC[C@H]2[C@@H](c3cc(C(F)(F)F)cc(C(F)(F)F)c3)NC(=O)N12` [Example 13, (1R,5S,7aS)-1-[3,5-bis(trifluoromethyl)phenyl]-5-[2′-methoxy-5′-(2-methylpyridin-3-yl)-4-(trifluoromethyl)biphenyl-2-yl]hexahydro-3H-pyrrolo[1,2-c]imidazol-3-one] here?
**A.** 795 nM

**Q.** Which IC50 does the source give for `COc1ccc(-c2ccc(C(=O)O)nc2C)cc1-c1ccc(C(F)(F)F)cc1[C@@H]1CC[C@H]2[C@@H](c3cc(C(F)(F)F)cc(C(F)(F)F)c3)NC(=O)N12` [Example 14, 5-[2′-{(1R,5S,7aS)-1-[3,5-bis(trifluoromethyl)phenyl]-3-oxohexahydro-1H-pyrrolo[1,2-c]imidazol-5-yl}-methoxy-4′-(trifluoromethyl)biphenyl-3-yl]-6-methylpyridine-2-carboxylic acid] here?
**A.** 1930 nM

**Q.** Which IC50 does the source give for `COc1ccc([C@H]2[C@H](C)C(=O)N[C@@H]2C)cc1-c1ccc(C(F)(F)F)cc1[C@@H]1CC[C@H]2[C@@H](c3cc(C(F)(F)F)cc(C(F)(F)F)c3)NC(=O)N12` [Example 15, (1R,5S,7aS)-1-[3,5-bis(trifluoromethyl)phenyl]-5-{5′-[(2R,3R,4S)-2,4-dimethyl-5-oxopyrrolidin-3-yl]-2′-methoxy-4-(trifluoromethyl)biphenyl-2-yl}hexahydro-3H-pyrrolo[1,2-c]imidazol-3-one] here?
**A.** 1740 nM

**Q.** Which IC50 does the source give for `COc1ccc(-c2ccc(C(=O)O)cc2C)cc1-c1ccc(C(F)(F)F)cc1[C@@H]1CC[C@H]2[C@@H](c3cc(F)cc(C(F)(F)F)c3)NC(=O)N12` [Example 16, 2″-{(1R,5S,7aS)-1-[3-fluoro-5-(trifluoromethyl)phenyl]-3-oxohexahydro-1H-pyrrolo[1,2-c]imidazol-5-yl}-4′-methoxy-2-methyl-4″-(trifluoromethyl)-1,1′:3′,1″-terphenyl-4-carboxylic acid] here?
**A.** 1510 nM

**Q.** With `COc1ccc(CCC(=O)O)cc1-c1ccc(C(F)(F)F)cc1[C@@H]1CC[C@H]2[C@@H](c3cc(F)cc(C(F)(F)F)c3)NC(=O)N12` [Example 17, 3-[2′-{(1R,5S,7aS)-1-[3-fluoro-5-(trifluoromethyl)phenyl]-3-oxohexahydro-1H-pyrrolo[1,2-c]imidazol-5-yl}-6-methoxy-4′-(trifluoromethyl)biphenyl-3-yl]propanoic acid] as the compound, how does the IC50 read?
**A.** 3160 nM

**Q.** Which IC50 does the source give for `COc1ncc(-c2ccc(C(=O)O)cc2C)cc1-c1ccc(C(F)(F)F)cc1[C@@H]1CC[C@H]2[C@@H](c3ccnc(C(F)(F)F)c3)NC(=O)N12` [Example 18, 4-{6-methoxy-5-[2-{(1R,5S,7aS)-3-oxo-1-[2-(trifluoromethyl)pyridin-4-yl]hexahydro-1H-pyrrolo[1,2-c]imidazol-5-yl}-4-(trifluoromethyl)phenyl]pyridin-3-yl}-3-methylbenzoic acid] here?
**A.** 5040 nM
